Results: paper PMC5481817, “Developing Targeted Hybrid Imaging Probes by Chelator Scaffolding” (Bioconjugate chemistry, 2017)
*1 amine or outer side, *2 acyl side, *3 side chain or, on linkers, in order; H or OH if unused. Where a SMILES comes first, the peptide text is derived from it. Bridges are numbered along the chain shown (N, C = ends). Roman numbers before positions name the chains, in order. [ ]: non-standard residue; d: D form. X2 = CC1=CC(=O)N(O)CCCC(NC(=O)CCN2C(=O)CC([*:2])C2=O)C(=O)OCCC(C)=CC(=O)N(O)CCCC(NC(=O)CCN2C(=O)CC([*:1])C2=O)C(=O)OCCC(C)=CC(=O)N(O)CCCC(NC(=O)CCCCC[N+]2=C(C=CC3=CC(=CC=C4N(C)c5ccc(S(=O)(=O)O)cc5C4(C)C)CCC3)C(C)(C)c3cc(S(=O)(=O)[O-])ccc32)C(=O)OCC1; Mpa = O=C(O)CCS

How the values were obtained:
human CCK-2 receptor = molecular target: T1, human CCK-2 receptor (Homo sapiens, UniProt P32239); experiment: Whole cell receptor binding affinity (displacement of [125I]-[Leu15]-Gastrin I) on A431-CCK2R cells; details: metal-bound ([natGa]) complexed form
T1 construct: expressed in transfected cells; host or cells: A431 human squamous carcinoma cells (gift from L. Aloj)
T1 sequence (P32239 1-447): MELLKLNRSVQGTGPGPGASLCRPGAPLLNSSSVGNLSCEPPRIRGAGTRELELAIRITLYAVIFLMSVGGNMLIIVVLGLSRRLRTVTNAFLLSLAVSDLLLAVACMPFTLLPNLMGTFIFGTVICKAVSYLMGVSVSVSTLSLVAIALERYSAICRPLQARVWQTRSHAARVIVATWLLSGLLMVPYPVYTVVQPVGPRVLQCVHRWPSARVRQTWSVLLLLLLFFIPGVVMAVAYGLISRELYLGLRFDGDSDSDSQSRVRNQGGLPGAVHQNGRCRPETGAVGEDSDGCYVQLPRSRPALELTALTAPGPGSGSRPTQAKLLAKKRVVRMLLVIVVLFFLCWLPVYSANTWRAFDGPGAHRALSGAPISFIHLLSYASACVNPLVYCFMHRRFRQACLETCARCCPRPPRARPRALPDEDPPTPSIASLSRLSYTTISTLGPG
Description: (§1) Receptor binding affinities were evaluated via a displacement cell-binding assay for metal free as well as metal bound ([^natGa]) conjugates. Binding of nonradioactive gallium was performed in analogy to the radiolabeling procedure but instead of the generator eluate a 100-fold molar excess of gallium bromide (GaBr3) dissolved in 100 μL 0.1 N HCl was used. Cells were prepared as described below and incubated with increasing concentrations [0.001–1000 nM] of competitor in triplicate. After addition of corresponding iodinated radioligand the 96-well MulitScreen Filter Plates HTS (1 μm glass fiber filter, Merck Millipore, Darmstadt, Germany) were incubated for 1 or 2 h at RT under shaking conditions (Compact shaker KS-15 control, 200/min) and after a washing step the remaining activity on the filter was measured in the γ-counter. The receptor affinity of DOTA-minigastrin11 as well as c(RGDyV) were determined under the corresponding conditions as a reference. IC50 values were calculated by using nonlinear curve fitting with following formula NS+SB/(1+x/IC50) on Origin 6.1 software (Northampton, MA, USA). A detailed description regarding iodination can be found in the Supporting Information.
A431-CCK2R cells were diluted in 50 mM HEPES buffer (pH 7.3) containing 5 mM MgCl2 and 0.3% BSA to a density of 5 × 10^6 cells/mL. 96-well plates were washed with 200 μL of 10 mM TRIS buffered saline (pH 7.3) and 100 μL of cell suspension were added to each well. Hereafter 50 μL of competitor solution {([^natGa])Sulfo-Cy7-FSC-MG or DOTA-minigastrin^11 diluted in 20 mM HEPES; 10 mM MgCl2 and 0.1% BSA} of each concentration were added and left for 10 min at RT. After incubation with 50 μL of radioligand (human [^125I]-[Leu^15]-Gastrin I 4.5 × 10^4 cpm) for 1 h the plate was washed twice with 200 μL TRIS-buffer/well.

integrin αvβ3 = molecular target: T2, integrin αvβ3 (Homo sapiens, UniProt P05106+P06756); experiment: Integrin binding affinity assay (displacement of [125I]-c(RGDyV)) on M21 cells
T2 construct: endogenous in cells; host or cells: human melanoma M21 cells (gift from D. A. Cheresh)
T2 sequence (P06756 31-889 limits assumed): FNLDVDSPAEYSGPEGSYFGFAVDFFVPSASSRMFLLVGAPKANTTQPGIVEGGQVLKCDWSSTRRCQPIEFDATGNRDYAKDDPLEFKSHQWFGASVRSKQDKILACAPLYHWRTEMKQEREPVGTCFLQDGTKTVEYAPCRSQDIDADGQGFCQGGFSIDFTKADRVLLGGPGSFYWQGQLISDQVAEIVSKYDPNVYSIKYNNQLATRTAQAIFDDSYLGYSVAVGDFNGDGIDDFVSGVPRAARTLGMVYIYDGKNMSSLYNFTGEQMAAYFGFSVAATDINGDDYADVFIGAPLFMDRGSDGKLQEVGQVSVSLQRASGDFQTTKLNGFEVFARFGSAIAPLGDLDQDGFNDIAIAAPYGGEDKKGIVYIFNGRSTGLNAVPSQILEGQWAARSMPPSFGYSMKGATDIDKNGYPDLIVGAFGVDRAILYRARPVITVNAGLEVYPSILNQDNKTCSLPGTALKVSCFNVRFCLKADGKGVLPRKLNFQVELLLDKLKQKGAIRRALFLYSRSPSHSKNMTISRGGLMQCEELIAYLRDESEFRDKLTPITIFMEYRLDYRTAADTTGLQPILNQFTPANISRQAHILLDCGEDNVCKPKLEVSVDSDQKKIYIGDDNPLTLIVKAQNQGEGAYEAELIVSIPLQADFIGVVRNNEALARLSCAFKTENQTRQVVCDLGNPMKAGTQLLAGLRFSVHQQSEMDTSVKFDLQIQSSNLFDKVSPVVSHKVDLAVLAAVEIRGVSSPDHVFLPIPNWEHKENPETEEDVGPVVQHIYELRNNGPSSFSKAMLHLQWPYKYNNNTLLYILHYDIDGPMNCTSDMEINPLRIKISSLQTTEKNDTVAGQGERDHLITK
T2 sequence (P06756 891-1048 partner limits assumed): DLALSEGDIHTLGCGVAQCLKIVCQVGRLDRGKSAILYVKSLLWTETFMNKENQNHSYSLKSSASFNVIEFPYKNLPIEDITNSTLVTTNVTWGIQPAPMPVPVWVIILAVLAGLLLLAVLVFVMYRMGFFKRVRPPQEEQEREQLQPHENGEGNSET
T2 sequence (P05106 27-788): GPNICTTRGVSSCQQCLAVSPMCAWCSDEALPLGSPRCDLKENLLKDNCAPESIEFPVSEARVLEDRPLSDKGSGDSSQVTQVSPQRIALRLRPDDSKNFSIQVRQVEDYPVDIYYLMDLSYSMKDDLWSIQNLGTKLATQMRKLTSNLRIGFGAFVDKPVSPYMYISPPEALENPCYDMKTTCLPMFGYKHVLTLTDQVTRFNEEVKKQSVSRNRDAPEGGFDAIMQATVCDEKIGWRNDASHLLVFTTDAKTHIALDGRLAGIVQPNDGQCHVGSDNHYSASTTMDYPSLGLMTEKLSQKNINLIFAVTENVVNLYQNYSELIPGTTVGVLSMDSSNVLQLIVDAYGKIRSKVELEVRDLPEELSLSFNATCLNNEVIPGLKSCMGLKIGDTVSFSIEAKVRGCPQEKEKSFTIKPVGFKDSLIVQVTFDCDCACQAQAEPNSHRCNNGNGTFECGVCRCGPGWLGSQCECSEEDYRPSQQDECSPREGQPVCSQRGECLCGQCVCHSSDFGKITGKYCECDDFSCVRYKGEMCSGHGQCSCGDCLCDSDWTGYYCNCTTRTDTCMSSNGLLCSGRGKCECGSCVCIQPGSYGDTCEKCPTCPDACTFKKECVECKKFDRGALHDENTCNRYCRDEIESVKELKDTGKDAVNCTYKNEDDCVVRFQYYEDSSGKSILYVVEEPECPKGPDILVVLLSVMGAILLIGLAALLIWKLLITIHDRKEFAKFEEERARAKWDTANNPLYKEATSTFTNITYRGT
Description: as §1
Integrin binding affinity assay was adapted from Yun Wu et al.[31] Briefly, M21 cells were washed two times with phosphate buffered saline followed by suspension in binding buffer (=20 mM TRIS pH 7.4 + 150 mM NaCl + 2 mM CaCl2 + 1 mM MgCl2 + 1 mM MnCl2 0.1% BSA). 96-well plates were washed with 200 μL of 20 mM TRIS-buffer and seeded with 1 × 10^6 cells/well (10^7 cells/mL). After 10 min of incubation in the presence of the competitor {([^natGa])Sulfo-Cy7-FSC-RGD or c(RGDyV) diluted in binding buffer)} volume was adjusted to 200 μL/well by adding 50 μL of radioligand ([^125I]-c(RGDyV), 4.5 × 10^4 cpm) and the plate was left for 2 h at RT. Finally the supernatant was removed by vacuum and each well was washed three times with 200 μL ice-cold binding buffer.

Compound `CSCC[C@H](NC(=O)[C@H](Cc1c[nH]c2ccccc12)NC(=O)CNC(=O)[C@H](Cc1ccc(O)cc1)NC(=O)[C@H](C)NC(=O)[C@@H](CCC(=O)O)NC(=O)CCSC1CC(=O)N(CCC(=O)NC2CCCN(O)C(=O)C=C(C)CCOC(=O)C(NC(=O)CCN3C(=O)CC(SCCC(=O)N[C@H](CCC(=O)O)C(=O)N[C@@H](C)C(=O)N[C@@H](Cc4ccc(O)cc4)C(=O)NCC(=O)N[C@@H](Cc4c[nH]c5ccccc45)C(=O)N[C@@H](CCSC)C(=O)N[C@@H](CC(=O)O)C(=O)N[C@@H](Cc4ccccc4)C(N)=O)C3=O)CCCN(O)C(=O)C=C(C)CCOC(=O)C(NC(=O)CCCCC[N+]3=C(C=CC4=CC(=CC=C5N(C)c6ccc(S(=O)(=O)O)cc6C5(C)C)CCC4)C(C)(C)c4cc(S(=O)(=O)[O-])ccc43)CCCN(O)C(=O)C=C(C)CCOC2=O)C1=O)C(=O)N[C@@H](CC(=O)O)C(=O)N[C@@H](Cc1ccccc1)C(N)=O` (stereo partly drawn) [[^natGa]Sulfo-Cy7-FSC-MG, metal not drawn] (I: [Mpa][dE]AYGWMDF-NH2 / II: [Mpa][dE]AYGWMDF-NH2; linker I:1-II:1 via X2) has an IC50 (human CCK-2 receptor) of 2.68 ± 0.53 nM.

`CC1=CC(=O)N(O)CCCC(NC(=O)CCN2C(=O)CC(SCCOCCOCCOCCOCCC(=O)NCCCC[C@@H]3NC(=O)[C@@H](Cc4ccccc4)NC(=O)[C@H](CC(=O)O)NC(=O)CNC(=O)[C@H](CCCNC(=N)N)NC3=O)C2=O)C(=O)OCCC(C)=CC(=O)N(O)CCCC(NC(=O)CCN2C(=O)CC(SCCOCCOCCOCCOCCC(=O)NCCCC[C@@H]3NC(=O)[C@@H](Cc4ccccc4)NC(=O)[C@H](CC(=O)O)NC(=O)CNC(=O)[C@H](CCCNC(=N)N)NC3=O)C2=O)C(=O)OCCC(C)=CC(=O)N(O)CCCC(NC(=O)CCCCC[N+]2=C(C=CC3=CC(=CC=C4N(C)c5ccc(S(=O)(=O)O)cc5C4(C)C)CCC3)C(C)(C)c3cc(S(=O)(=O)[O-])ccc32)C(=O)OCC1` (stereo partly drawn) [[^natGa]Sulfo-Cy7-FSC-RGD, metal not drawn] gave an IC50 (integrin αvβ3; [natGa] bound form) of 0.81 ± 0.19 nM.

`CC(C)[C@@H]1NC(=O)[C@@H](Cc2ccc(O)cc2)NC(=O)[C@H](CC(=O)O)NC(=O)CNC(=O)[C@H](CCCNC(=N)N)NC1=O` [c(RGDyV), reference compound] gave an IC50 (integrin αvβ3; metal-free conjugate or reference peptide, radioligand [125I]-c(RGDyV), 2 h RT) of 15.2 ± 2.86 nM.
